Measurements published in publication PMC8669712, “G Protein-Coupled Receptor GPR35 Suppresses Lipid Accumulation in Hepatocytes” (ACS Pharmacology & Translational Science, 2021).
“And” between values parts separate entries of the source, which are not always exact repeats. Equal values may be shown once.

Assays:
[1] = test system: HepG2 cells; assay: Oil Red O staining of LXR (T0901317)-induced lipid accumulation in HepG2 cells; type: cell-based, human
Method: Human hepatocellular carcinoma HepG2 cells were grown in Minimum Essential Medium (MEM) supplemented with 10% fetal bovine serum (FBS), 2 mM L-glutamine, 1× non-essential amino acid, 1 mM sodium pyruvate, and 1× penicillin/streptomycin. Materials for cell culture were all from Sigma-Aldrich (St. Louis, MO) or Thermo Fisher Scientific (Waltham, MA). Cells were incubated in a humidified CO2 incubator at 37 °C. […] Cells were seeded onto a 12-well plate (1 × 10^5 cells/well) for 24 h prior to drug treatment. […] Lipid accumulation was measured by Oil Red O staining.

[2] = target: human GPR35a (Homo sapiens, UniProt Q9HC97); assay: β-arrestin-based interaction assay, agonist potency at human GPR35a; type: cell-based
[3] = target: mouse GPR35 (Mus musculus, UniProt Q9ES90); assay: β-arrestin-based interaction assay, agonist potency at mouse GPR35; type: cell-based
[4] = test system: HepG2 cells; assay: Label-free cellular impedance assay (xCELLigence) in HepG2 cells; type: cell-based, human
Method: HepG2 cells were seeded onto xCELLigence E plates (2 × 10^4 cells/well) and incubated for 24 h at 37 °C. To evaluate GPR35 activation and its downstream G protein signaling, HepG2 cells or primary mouse hepatocytes were exposed to GPR35 antagonists or G protein inhibitors 1 h (overnight for Pertussis toxin) prior to GPR35 agonist stimulation. After the addition of GPR35 agonist or vehicle control, the impedance (represented as “cell index”) was recorded every 30 s over a 2 h period using xCELLigence RTCA (Agilent). Each experiment was repeated at least three times.

[5] = test system: GPR35 genome-edited HepG2 clones; assay: Label-free cellular impedance assay in GPR35 genome-edited HepG2 clones 19 and 27; type: cell-based, human; conditions: 1 × 10^–5 M
Excerpt: Expression of full-length mRNA from the GPR35 gene was eliminated using a dual synthetic gRNA/RNP approach[43] with one guide cutting the intron and one in the exon region to generate a nonfunctional GPR35 protein. The gRNAs were designed with the CRISPR Finder (Welcome Sanger Institute). HepG2 cells were transfected with the Neon Transfection System from Thermo Fisher Scientific (Waltham, MA), according to the manufacturer’s instructions. Briefly, CrRNA and tracrRNA were annealed to gRNA at 95 °C for 5 min. Next, cells were transfected with gRNA, Cas9, and the electroporation enhancer, according to the manufacturer’s instructions. All crRNAs, tracrRNA, SpCas9 nuclease, and the electroporation enhancer were purchased from Integrated DNA Technologies (Coralville, IA). Transfected cells were plated and analyzed for editing efficiency 24–48 h after electroporation. Single-cell clones were generated by single-cell FACS sorting. Clones were expanded and to access editing efficiency, genomic DNA from cell clones was extracted and subjected to PCR to confirm the genome deletion. To further quantify and capture the genomic DNA deletion, PCR primers listed in Table S1 were designed to amplify the genomic DNA surrounding the target site. The PCR primers were linked to the sequences of the Illumina Nextera adapters. The amplified PCR products were subjected to paired-end sequencing using NextSeq500 from Illumina using paired-end chemistry with a 150-bp read length. In addition, mRNA from KO clones was isolated and subjected to RT-PCR. To further confirm the abrogation of GPR35 activation in CRISPR KO clones, KO cells were seeded onto xCELLigence E plates (2 × 10^4 cells/well) for 24 h at 37 °C prior to the treatment of GPR35 agonists. The impedance was recorded using xCELLigence RTCA. […]
HepG2 cells were seeded onto xCELLigence E plates (2 × 10^4 cells/well) and incubated for 24 h at 37 °C. […] After the addition of GPR35 agonist or vehicle control, the impedance (represented as “cell index”) was recorded every 30 s over a 2 h period using xCELLigence RTCA (Agilent). […]

[6] = test system: hepatocytes from hGPR35a-HA-expressing mice; assay: Label-free cellular impedance assay in hepatocytes from hGPR35a-HA-expressing mice; type: cell-based, mouse; conditions: lodoxamide 1 × 10^–7 M
[7] = test system: primary mouse hepatocytes; parameters: method as in Nam et al. 37; conditions: ref Nam et al. 37; read-out: EC50 to limit lipid accumulation in mouse hepatocytes; cited from earlier work

Chain of mouse GPR35 (Q9ES90 whole entry): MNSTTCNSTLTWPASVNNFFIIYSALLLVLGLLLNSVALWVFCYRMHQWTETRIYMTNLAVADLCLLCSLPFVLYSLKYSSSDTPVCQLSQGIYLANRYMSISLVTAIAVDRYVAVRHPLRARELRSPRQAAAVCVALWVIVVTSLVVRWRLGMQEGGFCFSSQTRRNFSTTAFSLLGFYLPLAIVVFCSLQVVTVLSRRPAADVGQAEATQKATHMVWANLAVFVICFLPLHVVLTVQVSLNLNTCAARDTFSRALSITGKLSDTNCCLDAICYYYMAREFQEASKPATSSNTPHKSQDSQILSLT
Chain of human GPR35a (Q9HC97 whole entry): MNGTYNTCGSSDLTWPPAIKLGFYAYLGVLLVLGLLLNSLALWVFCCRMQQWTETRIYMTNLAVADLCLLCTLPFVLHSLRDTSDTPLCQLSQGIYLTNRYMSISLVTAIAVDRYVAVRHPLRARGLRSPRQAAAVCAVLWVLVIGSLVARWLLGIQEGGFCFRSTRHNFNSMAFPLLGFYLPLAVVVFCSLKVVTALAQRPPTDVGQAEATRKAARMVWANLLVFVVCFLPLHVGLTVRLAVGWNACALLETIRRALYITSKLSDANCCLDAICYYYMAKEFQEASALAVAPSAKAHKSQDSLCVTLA

SMILES: N#Cc1cc(NC(=O)C(=O)O)c(Cl)c(NC(=O)C(=O)O)c1 [lodoxamide, 2-[2-chloro-5-cyano-3-(oxaloamino)anilino]-2-oxoacetic acid]
- effect on basal lipid accumulation without co-addition of T0901317 ([1]; 1 × 10^–5 M): no significant effect
- EC50 ([1]; Homo sapiens, co-incubation with T0901317 4 × 10^–6 M, 48 h, Oil Red O, read-out: EC50 for reduction in the lipid accumulation induced by T0901317): 0.095 µM
- effect of T0901317 on lipid accumulation at maximally effective concentrations of lodoxamide ([1]; T0901317 4 × 10^–6 M, 48 h): fully suppressed
- ratio (log) (H/M) ([2]; log ratio of potency at human GPR35a over mouse GPR35): 2.66 ± 0.05
- EC50 ([2]; β-arrestin-based interaction assay, read-out: human GPR35a, pEC50 (converted)): 0.00417 µM
- fold lower potency at mouse GPR35 than at human GPR35 ([3]; mouse versus human GPR35): ~450 fold and ~500 fold
- EC50 ([3]; β-arrestin-based interaction assay, read-out: mouse GPR35, pEC50 (converted)): 1.91 µM
- impedance signal in parental HepG2 cells ([4]; 1 × 10^–5 M): produced positive signals
- time for the impedance signal to reach a plateau ([4]; HepG2 cells, lodoxamide 1 × 10^–8 M): ≤ 5 min
- impedance signal in GPR35 genome-edited clones 19 and 27 [5]: not in either clone 19 or 27
- cellular impedance response in hepatocytes from hGPR35a-HA-expressing mice [6]: time-dependent increase in cellular impedance
- EC50 [7]: 0.0061 µM
